Test results as given in PubChem BioAssay AID1259407 (Chemical Carcinogenesis Research Information System (CCRIS), 2018).
The source made the active and inactive calls. The rule behind the calls is not given here.

Tested on: CCRIS mutagenicity, Ames/micronucleus/aberration tests
Assay: CCRIS mutagenicity studies
Details: Test System: AMES SALMONELLA TYPHIMURIUM
[1] = Strain/Indicator: TA98, Metabolic Activation: NONE, Method: PREINCUBATION
[2] = Strain/Indicator: TA100, Metabolic Activation: NONE, Method: PREINCUBATION
[3] = Strain/Indicator: TA1535, Metabolic Activation: NONE, Method: PREINCUBATION
[4] = Strain/Indicator: TA1537, Metabolic Activation: HAMSTER, LIVER, S-9, AROCLOR 1254 (10%), Method: PREINCUBATION
[5] = Strain/Indicator: TA1537, Metabolic Activation: NONE, Method: PREINCUBATION
[6] = Strain/Indicator: TA98, Metabolic Activation: RAT, LIVER, S-9, AROCLOR 1254, Method: STANDARD PLATE
[7] = Strain/Indicator: TA1535, Metabolic Activation: RAT, LIVER, S-9, AROCLOR 1254, Method: STANDARD PLATE
[8] = Strain/Indicator: TA98, Metabolic Activation: NONE, Method: STANDARD PLATE
[9] = Strain/Indicator: TA100, Metabolic Activation: NONE, Method: STANDARD PLATE
[10] = Strain/Indicator: TA100, Metabolic Activation: RAT, LIVER, S-9, AROCLOR 1254, Method: PREINCUBATION
[11] = Strain/Indicator: TA100, Metabolic Activation: RAT, LIVER, S-9, AROCLOR 1254, Method: STANDARD PLATE
[12] = Strain/Indicator: TA1535, Metabolic Activation: NONE, Method: STANDARD PLATE
[13] = Strain/Indicator: TA1537, Metabolic Activation: NONE, Method: STANDARD PLATE
[14] = Strain/Indicator: TA1537, Metabolic Activation: RAT, LIVER, S-9, AROCLOR 1254, Method: STANDARD PLATE
[15] = Strain/Indicator: TA1538, Metabolic Activation: NONE, Method: STANDARD PLATE
[16] = Strain/Indicator: TA1538, Metabolic Activation: RAT, LIVER, S-9, AROCLOR 1254, Method: STANDARD PLATE

SMILES | mutagenic call [1] | mutagenic call [2] | mutagenic call [6] | mutagenic call [7] | mutagenic call [8] | mutagenic call [9] | mutagenic call [11] | mutagenic call [12] | mutagenic call [13] | mutagenic call [14] | also measured
COc1ccc(C(Cl)=C(c2ccc(OC)cc2)c2ccc(OC)cc2)cc1 | inactive; negative | inactive; negative | – | – | – | – | – | – | – | – | mutagenic call (Strain/Indicator: TA97, Metabolic Activation: HAMSTER, LIVER, S-9, AROCLOR 1254 (10 OR 30%), Method: PREINCUBATION): inactive; negative; mutagenic call (Strain/Indicator: TA97, Metabolic Activation: NONE, Method: PREINCUBATION): inactive; negative; mutagenic call (Strain/Indicator: TA97, Metabolic Activation: RAT, LIVER, S-9, AROCLOR 1254 (10 OR 30%), Method: PREINCUBATION): inactive; negative; mutagenic call (Strain/Indicator: TA98, Metabolic Activation: HAMSTER, LIVER, S-9, AROCLOR 1254 (10 OR 30%), Method: PREINCUBATION): inactive; negative; mutagenic call (Strain/Indicator: TA98, Metabolic Activation: RAT, LIVER, S-9, AROCLOR 1254 (10 OR 30%), Method: PREINCUBATION): inactive; negative; mutagenic call (Strain/Indicator: TA100, Metabolic Activation: HAMSTER, LIVER, S-9, AROCLOR 1254 (10 OR 30%), Method: PREINCUBATION): inactive; negative; mutagenic call (Strain/Indicator: TA100, Metabolic Activation: RAT, LIVER, S-9, AROCLOR 1254 (10 OR 30%), Method: PREINCUBATION): inactive; negative; mutagenic call (Strain/Indicator: TA1535, Metabolic Activation: HAMSTER, LIVER, S-9, AROCLOR 1254 (10 OR 30%), Method: PREINCUBATION): inactive; negative; mutagenic call [3]: inactive; negative; mutagenic call (Strain/Indicator: TA1535, Metabolic Activation: RAT, LIVER, S-9, AROCLOR 1254 (10 OR 30%), Method: PREINCUBATION): inactive; negative; mutagenic call [4]: inactive; negative; mutagenic call (Strain/Indicator: TA1537, Metabolic Activation: HAMSTER, LIVER, S-9, AROCLOR 1254 (30%), Method: PREINCUBATION): inactive; negative; mutagenic call [5]: inactive; negative; mutagenic call (Strain/Indicator: TA1537, Metabolic Activation: RAT, LIVER, S-9, AROCLOR 1254 (10 OR 30%), Method: PREINCUBATION): inactive; negative
CNC(=O)Oc1ccc(-c2ccccc2)cc1 | – | – | inactive; negative | active; positive | – | – | – | – | – | – | –
CC(=O)[CH-]C(=O)c1ccccc1.CC(=O)[CH-]C(=O)c1ccccc1.CC[O-].CC[O-].[Ti+4] | – | – | inactive; negative | inactive; negative | inactive; negative | inactive; negative | inactive; negative | inactive; negative | inactive; negative | inactive; negative | mutagenic call [10]: inactive; negative; mutagenic call (Strain/Indicator: TA1535, Metabolic Activation: RAT, LIVER, S-9, AROCLOR 1254, Method: PREINCUBATION): inactive; negative; mutagenic call [15]: inactive; negative; mutagenic call [16]: inactive; negative
O=NN1CCSC1C(O)C(O)C(O)C(O)CO (stereo not drawn) | inactive; negative | active; positive | inactive; negative | – | inactive; negative | active; positive | active; positive | – | – | – | mutagenic call (Strain/Indicator: TA98, Metabolic Activation: RAT, LIVER, S-9, AROCLOR 1254, Method: PREINCUBATION): inactive; negative; mutagenic call [10]: active; positive
CC(O)Cc1cc(N)cc([N+](=O)[O-])c1N (stereo not drawn) | – | – | inactive; negative | inactive; negative | inactive; negative | inactive; negative | inactive; negative | inactive; negative | inactive; negative | inactive; negative | mutagenic call [15]: inactive; negative; mutagenic call [16]: inactive; negative
CCCCOC(=O)c1ccccc1N | inactive; negative | inactive; negative | – | – | – | – | – | – | – | – | mutagenic call (Strain/Indicator: TA98, Metabolic Activation: HAMSTER, LIVER, S-9, AROCLOR 1254 (10%), Method: PREINCUBATION): inactive; negative; mutagenic call (Strain/Indicator: TA98, Metabolic Activation: RAT, LIVER, S-9, AROCLOR 1254 (10%), Method: PREINCUBATION): inactive; negative; mutagenic call (Strain/Indicator: TA100, Metabolic Activation: HAMSTER, LIVER, S-9, AROCLOR 1254 (10%), Method: PREINCUBATION): inactive; negative; mutagenic call (Strain/Indicator: TA100, Metabolic Activation: RAT, LIVER, S-9, AROCLOR 1254 (10%), Method: PREINCUBATION): inactive; negative; mutagenic call (Strain/Indicator: TA1535, Metabolic Activation: HAMSTER, LIVER, S-9, AROCLOR 1254 (10%), Method: PREINCUBATION): inactive; negative; mutagenic call [3]: inactive; negative; mutagenic call (Strain/Indicator: TA1535, Metabolic Activation: RAT, LIVER, S-9, AROCLOR 1254 (10%), Method: PREINCUBATION): inactive; negative; mutagenic call [4]: inactive; negative; mutagenic call [5]: inactive; negative; mutagenic call (Strain/Indicator: TA1537, Metabolic Activation: RAT, LIVER, S-9, AROCLOR 1254 (10%), Method: PREINCUBATION): inactive; negative
COc1ccc(OC)c(N=Nc2c(O)ccc3ccccc23)c1 | inactive; negative | inactive; negative | – | – | – | – | – | – | – | – | mutagenic call (Strain/Indicator: TA98, Metabolic Activation: HAMSTER, LIVER, S-9, AROCLOR 1254 (30%), Method: PREINCUBATION): active; positive; mutagenic call (Strain/Indicator: TA100, Metabolic Activation: HAMSTER, LIVER, S-9, AROCLOR 1254 (30%), Method: PREINCUBATION): active; positive; mutagenic call (Strain/Indicator: TA100, Metabolic Activation: RAT, LIVER, S-9, AROCLOR 1254 (30%), Method: PREINCUBATION): active; positive
CN(C)CC/C=C1\c2ccccc2COc2ccccc21 | – | – | inactive; negative | inactive; negative | inactive; negative | inactive; negative | inactive; negative | inactive; negative | inactive; negative | inactive; negative | –
